According to paper PMC8754100, “Role of Hepatocyte- and Macrophage-Specific PPARγ in Hepatotoxicity Induced by Diethylhexyl Phthalate in Mice” (Environmental Health Perspectives, 2022):

Target: T1, PPARα (Homo sapiens, UniProt Q07869)
T1 construct: gene PPARA
T1 sequence (Q07869 1-468): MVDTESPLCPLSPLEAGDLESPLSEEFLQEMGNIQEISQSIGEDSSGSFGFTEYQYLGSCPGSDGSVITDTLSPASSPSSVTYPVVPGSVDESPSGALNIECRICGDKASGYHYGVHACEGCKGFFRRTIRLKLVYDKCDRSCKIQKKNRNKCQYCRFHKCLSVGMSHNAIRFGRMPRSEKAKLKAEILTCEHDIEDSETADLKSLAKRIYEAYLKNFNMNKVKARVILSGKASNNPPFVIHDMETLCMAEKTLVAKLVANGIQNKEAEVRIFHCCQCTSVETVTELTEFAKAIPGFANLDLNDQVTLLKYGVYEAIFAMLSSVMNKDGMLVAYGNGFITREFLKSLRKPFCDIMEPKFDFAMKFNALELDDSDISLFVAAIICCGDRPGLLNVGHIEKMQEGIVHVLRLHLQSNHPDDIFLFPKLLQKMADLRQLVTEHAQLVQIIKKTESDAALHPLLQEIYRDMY
Test: SPR (OpenSPR) with recombinant human PPARα immobilized by amine coupling
Format: binding

CCCCC(CC)COC(=O)c1ccccc1C(=O)O (stereo not shown) [MEHP, mono(2-ethylhexyl) phthalate]
Kd: 627 µM
